Source: paper PMC11335189, “Revealing molecular determinants governing mambalgin-3 pharmacology at acid-sensing ion channel 1 variants” (Cellular and Molecular Life Sciences: CMLS, 2024)
Positions of bridges follow the written chain, without caps; N, C: chain ends. No end group written: not given here.

Experiments:
hASIC1a = biological target: T1, hASIC1a (Homo sapiens, UniProt P78348); test: TEVC in Xenopus laevis oocytes expressing hASIC1a; assay type: cell-based; conditions: for loss of potency relative to wild-type Ma-3: conditioning pH 7.45, stimulating pH 6
T1 construct: expressed in transfected cells; host or cells: Xenopus laevis oocytes (cRNA injection)
T1 sequence (P78348 1-528): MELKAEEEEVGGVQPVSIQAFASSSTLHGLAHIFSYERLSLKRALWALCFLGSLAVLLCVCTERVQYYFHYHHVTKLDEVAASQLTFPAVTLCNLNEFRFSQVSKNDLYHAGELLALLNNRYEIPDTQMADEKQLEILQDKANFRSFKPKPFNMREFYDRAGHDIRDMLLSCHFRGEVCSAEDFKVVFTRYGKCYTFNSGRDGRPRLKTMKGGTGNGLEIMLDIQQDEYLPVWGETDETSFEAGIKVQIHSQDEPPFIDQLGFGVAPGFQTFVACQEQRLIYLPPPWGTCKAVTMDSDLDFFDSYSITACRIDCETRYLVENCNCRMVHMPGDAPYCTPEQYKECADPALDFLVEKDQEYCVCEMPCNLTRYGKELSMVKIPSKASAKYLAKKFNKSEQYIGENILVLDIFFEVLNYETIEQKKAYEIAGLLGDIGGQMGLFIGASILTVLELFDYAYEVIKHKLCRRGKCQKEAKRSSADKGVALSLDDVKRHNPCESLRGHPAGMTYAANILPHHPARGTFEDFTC
Method: Two-electrode voltage-clamp (TEVC) experiments using Xenopus laevis oocytes were conducted as previously described. Briefly, oocytes were surgically removed from anaesthetised female frogs, then treated with collagenase (~ 1 mg/ml, Sigma type I) for 2 h under agitation at room temperature. cRNAs were synthesised using a mMessage mMachine T7 or SP6 transcription kit (Thermo Fisher Scientific Australia Pty Ltd, Scoresby, VIC, Australia) and injected into healthy stage V–VI oocytes at 0.2–20 ng per cell. Different amounts of RNA were used for different wild-type and mutant constructs, as well as to titrate expression levels to record over multiple days and maintaining consistent expression levels. Injected oocytes were incubated at 17 °C for 1–7 days in 50% Leibovitz’s L-15 medium (Gibco, Thermo Fisher Scientific Australia Pty Ltd, Scoresby, VIC, Australia), supplemented with 25 µg/mL gentamicin, 25 µg/mL streptomycin, and 2.5% fetal horse serum. Membrane currents were recorded 2–7 days after cRNA-injection under voltage-clamp at -60 mV (Axon Axoclamp 900 A, Molecular Devices, CA, USA) using two standard glass microelectrodes of 0.5–1 MΩ resistance when filled with 3 M KCl solution. Data were sampled at 2 kHz and filtered at 0.1 kHz using Clampex 10 software (Molecular Devices, CA, USA). […]
Specific to this work, the standard protocol was for oocytes to be conditioned at pH 7.45 and channels stimulated every 60 s using a 5 s pH 5 or 6 application, unless stated otherwise. […] Activation curves were determined by conditioning oocytes at pH 8 (Fig. 2e − g; and Fig. 5a and b) or 7.45 (Fig. 6; and Supplementary Fig. 2d and c) for 55 s and applying low pH stimuli from 7.25 to 5.0 for 5 s. Steady-state desensitisation (SSD) was determined by applying conditioning solutions of pH values from 8 to 6 for 115 s prior to stimulation by a pH drop to 5 for 5 s. […] Control pH-dependence curves were determined in the absence of any Ma-3. […]
Data were analysed using pCLAMP-Clampfit software (Version 11, Molecular Devices, CA, USA) and GraphPad Prism 9.5 and 10.2.2 (GraphPad Software, San Diego, CA, USA). […]

[1] = biological target: T2, rASIC1a S83T/Q84E/R175C/E177G (SQRE) (Rattus norvegicus, UniProt P55926, E177G/Q84E/R175C/S83T); test: TEVC oocytes, rASIC1a quadruple mutant SQRE; assay type: cell-based; conditions: for remaining activity at 0.3 µM: 300 nM peptide, conditioning pH 7.45, stimulating pH 6, read-out: I/Icontrol
T2 construct: expressed in transfected cells; host or cells: Xenopus laevis oocytes (cRNA injection)
T2 sequence (P55926 1-526 S83T/Q84E/R175C/E177G): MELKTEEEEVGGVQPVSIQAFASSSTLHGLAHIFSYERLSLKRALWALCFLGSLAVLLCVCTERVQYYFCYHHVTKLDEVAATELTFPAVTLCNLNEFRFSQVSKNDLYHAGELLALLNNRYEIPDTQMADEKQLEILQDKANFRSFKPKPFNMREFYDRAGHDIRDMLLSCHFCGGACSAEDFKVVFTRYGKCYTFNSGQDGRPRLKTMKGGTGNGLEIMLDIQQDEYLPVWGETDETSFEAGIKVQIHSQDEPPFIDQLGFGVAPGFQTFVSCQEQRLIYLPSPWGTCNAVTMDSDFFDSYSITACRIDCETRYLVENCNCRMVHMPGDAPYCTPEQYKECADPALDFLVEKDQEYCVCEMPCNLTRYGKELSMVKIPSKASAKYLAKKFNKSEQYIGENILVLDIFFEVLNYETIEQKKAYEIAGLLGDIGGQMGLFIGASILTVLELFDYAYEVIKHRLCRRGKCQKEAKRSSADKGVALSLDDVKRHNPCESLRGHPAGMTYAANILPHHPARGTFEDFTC
Method: Two-electrode voltage-clamp (TEVC) experiments using Xenopus laevis oocytes were conducted as previously described. Briefly, oocytes were surgically removed from anaesthetised female frogs, then treated with collagenase (~ 1 mg/ml, Sigma type I) for 2 h under agitation at room temperature. cRNAs were synthesised using a mMessage mMachine T7 or SP6 transcription kit (Thermo Fisher Scientific Australia Pty Ltd, Scoresby, VIC, Australia) and injected into healthy stage V–VI oocytes at 0.2–20 ng per cell. Different amounts of RNA were used for different wild-type and mutant constructs, as well as to titrate expression levels to record over multiple days and maintaining consistent expression levels. Injected oocytes were incubated at 17 °C for 1–7 days in 50% Leibovitz’s L-15 medium (Gibco, Thermo Fisher Scientific Australia Pty Ltd, Scoresby, VIC, Australia), supplemented with 25 µg/mL gentamicin, 25 µg/mL streptomycin, and 2.5% fetal horse serum. Membrane currents were recorded 2–7 days after cRNA-injection under voltage-clamp at -60 mV (Axon Axoclamp 900 A, Molecular Devices, CA, USA) using two standard glass microelectrodes of 0.5–1 MΩ resistance when filled with 3 M KCl solution. Data were sampled at 2 kHz and filtered at 0.1 kHz using Clampex 10 software (Molecular Devices, CA, USA). A microperfusion system was used to allow fast extracellular solution exchange (bath volume = ~ 30 µL). All experiments were performed at room temperature (18–23 °C) in ND96 (96 mM NaCl, 2 mM KCl, 1.8 mM CaCl2, 2 mM MgCl2, 5 mM HEPES, pH 7.45). In solutions below pH 6.8, HEPES was replaced by MES. All solutions containing peptides contained 0.05% fatty acid free bovine serum albumin to decrease adsorptive losses of peptide to plasticware. For all channels tested, control current magnitudes between 500 and 9000 nA when tested using a conditioning pH of 7.45 and stimulating pH of 6 (except for the chimeras that were stimulated with pH 5) were used for data collection. Before recording any experiments, oocytes were stimulated multiple times with low pH to minimise and stabilise tachyphylaxis/desensitisation, which were then accounted for during analysis. Complete recovery of currents from Ma-3 induced modulation within 3 min of washout at all channels tested allowed for correction for tachyphylaxis/desensitisation during analyses.
Specific to this work, the standard protocol was for oocytes to be conditioned at pH 7.45 and channels stimulated every 60 s using a 5 s pH 5 or 6 application, unless stated otherwise. For all concentration-response data, peptides were applied for ~ 50 s between each low pH stimulus application. Activation curves were determined by conditioning oocytes at pH 8 (Fig. 2e − g; and Fig. 5a and b) or 7.45 (Fig. 6; and Supplementary Fig. 2d and c) for 55 s and applying low pH stimuli from 7.25 to 5.0 for 5 s. Steady-state desensitisation (SSD) was determined by applying conditioning solutions of pH values from 8 to 6 for 115 s prior to stimulation by a pH drop to 5 for 5 s. Ma-3 was only applied in the conditioning solution for activation and steady-state desensitisation curves in the presence of peptide. Control pH-dependence curves were determined in the absence of any Ma-3. When assessing the effect of Ma-3 on the rASIC1a: ASIC1b chimeras (C92 and C166; and for the comparative wild-type data), the conditioning pH was 7.45 and stimulating pH 5 (Fig. 3b). Specific details of the conditioning and stimulating pH are noted in each figure legend.
Data were analysed using pCLAMP-Clampfit software (Version 11, Molecular Devices, CA, USA) and GraphPad Prism 9.5 and 10.2.2 (GraphPad Software, San Diego, CA, USA). To obtain the Hill coefficient (nH) and half-maximal response (EC50, IC50, or pH50) the Hill equation was fitted to normalised concentration-response curves by using a non-linear fit to the data of a four-parameter logistic equation (“sigmoidal dose-response” in GraphPad Prism 9.5). […]

Substance | pH50 of activation in presence of Ma-3 (hASIC1a; 100 nM Ma-3 in the pH 8 conditioning solution, Hill fit, n = 5–6) | shift of the activation curve towards acidic values ([1]; 100 nM Ma-3, conditioning pH 8) | slope of activation curve in presence of Ma-3 ([1]; 100 nM Ma-3, conditioning pH 8, mean ± SEM) | change of pH50 of the SSD curve ([1]; 100 nM Ma-3, stimulating pH 5) | slope of SSD curve in presence of Ma-3 ([1]; 100 nM Ma-3, stimulating pH 5, mean ± SEM) | pH50 of activation in presence of Ma-3 ([1]; 100 nM Ma-3 in conditioning solution, conditioning pH 8, Hill fit, mean ± SEM, n = 5–8) | pH50 of steady-state desensitisation (SSD) in presence of Ma-3 ([1]; 100 nM Ma-3 in conditioning solution, stimulating pH 5, Hill fit, mean ± SEM, n = 5–8) | remaining activity at 0.3 µM ([1]; n = 5–8) | loss of potency relative to wild-type Ma-3 (hASIC1a)
H-SLKCYQHGKVVTCHRDMKFCYHNIGMPFRNLKLILQGCSSSCSETENNKCCSTDRCNK (disulfide 4-20, 13-38, 42-50, 51-56 (inferred)) [Ma-3, mambalgin-3] | 5.86 | 0.11 pH units | 2.68 ± 0.34 | remained unchanged | 5.47 ± 0.95 | 6.03 ± 0.02 | 7.12 ± 0.01 | 48% | 
H-SLKCYQHGKVVTCHRDAKFCYHNIGMPFRNLKLILQGCSSSCSETENNKCCSTDRCNK (disulfide 4-20, 13-38, 42-50, 51-56 (inferred)) [M16A] |  |  |  |  |  |  |  | 56% | no change
H-SLKCYQHGAVVTCHRDMKFCYHNIGMPFRNLKLILQGCSSSCSETENNKCCSTDRCNK (disulfide 4-20, 13-38, 42-50, 51-56 (inferred)) [K8A] |  |  |  |  |  |  |  | 65% | ~ 4 fold
